We go through 1 compound from patent US20100234439A1, “THERAPEUTIC AGENTS” (priority 2006, published 2010).

The structures appear in SMILES notation.

The test deals with T1, CB1 receptor (Homo sapiens, UniProt P21554).
T1 construct: expressed in transfected cells; membranes prepared from them
In words: [35S]-GTPγS binding assay, membranes from cells stably transfected with the CB1 gene, inhibition of CP55940 (EC80) stimulated activity. Type of test: biochemical. The settings on record: concentration giving half maximal inhibition of GTPγS binding; EC80 concentration of agonist CP55940; 30° C., 45 min. The protocol: The compound of the present invention is active against the receptor product of the CB1 gene. The affinity of the compound of the invention for central cannabinoid receptors is demonstrable in methods described in Devane et al, Molecular Pharmacology, 1988, 34,605 or those described in WO01/70700 or EP 656354. Alternatively the assay may be performed as follows.
10 μg of membranes prepared from cells stably transfected with the CB1 gene were suspended in 200 μl of 100 mM NaCl, 5 mM MgCl2, 1 mM EDTA, 50 mM HEPES (pH 7.4), 1 mM DTT, 0.1% BSA and 100 μM GDP. To this was added an EC80 concentration of agonist (CP55940), the required concentration of test compound and 0.1 μCi [^35S]-GTPγS.
The reaction was allowed to proceed at 30° C. for 45 min. […] Filters were then covered with scintilant and counted for the amount of [^35S]-GTPγS retained by the filter.
Activity is measured in the absence of all ligands (minimum activity) or in the presence of an EC80 concentration of CP55940 (maximum activity). […] At various concentrations of novel ligand, activity is calculated as a percentage of the maximum activity and plotted. The data are fitted using the equation y=A+((B−A)/1+((C/x)ÙD)) and the IC50 value determined as the concentration required to give half maximal inhibition of GTPγS binding under the conditions used.

T1 sequence (P21554 whole entry): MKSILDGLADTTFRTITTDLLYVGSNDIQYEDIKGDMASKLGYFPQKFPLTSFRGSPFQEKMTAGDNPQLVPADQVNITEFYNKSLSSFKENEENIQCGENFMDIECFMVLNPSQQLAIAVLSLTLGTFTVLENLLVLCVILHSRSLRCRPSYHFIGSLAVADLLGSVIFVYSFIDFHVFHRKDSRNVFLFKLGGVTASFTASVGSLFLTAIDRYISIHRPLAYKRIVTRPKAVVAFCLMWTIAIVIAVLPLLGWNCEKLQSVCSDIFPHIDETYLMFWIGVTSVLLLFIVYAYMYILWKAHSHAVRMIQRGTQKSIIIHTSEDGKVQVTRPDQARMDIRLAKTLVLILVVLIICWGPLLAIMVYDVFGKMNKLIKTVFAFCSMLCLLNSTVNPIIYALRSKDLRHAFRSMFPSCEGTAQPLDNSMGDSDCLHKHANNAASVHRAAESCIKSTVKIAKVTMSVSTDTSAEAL

The compound `O=C(N[C@@H]1CCCC[C@@H]1O)c1nn(-c2ccc(Cl)cc2Cl)c(-c2ccc(OS(=O)(=O)CCC(F)(F)F)cc2)c1CO` (single isomer, unassigned) [Example 1, (+)3,3,3-Trifluoro-propane-1-sulfonic acid 4-[2-(2,4-dichloro-phenyl)-5-(2-hydroxy-cyclohexylcarbamoyl)-4-hydroxymethyl-2H-pyrazol-3-yl]-phenyl ester] displayed an IC50 of 1 nM.
